Counter-ions that a name gives are not always drawn.

This assay concerns the target T1, SIRT1 (Homo sapiens, UniProt Q96EB6).
T1 sequence (Q96EB6 1-747): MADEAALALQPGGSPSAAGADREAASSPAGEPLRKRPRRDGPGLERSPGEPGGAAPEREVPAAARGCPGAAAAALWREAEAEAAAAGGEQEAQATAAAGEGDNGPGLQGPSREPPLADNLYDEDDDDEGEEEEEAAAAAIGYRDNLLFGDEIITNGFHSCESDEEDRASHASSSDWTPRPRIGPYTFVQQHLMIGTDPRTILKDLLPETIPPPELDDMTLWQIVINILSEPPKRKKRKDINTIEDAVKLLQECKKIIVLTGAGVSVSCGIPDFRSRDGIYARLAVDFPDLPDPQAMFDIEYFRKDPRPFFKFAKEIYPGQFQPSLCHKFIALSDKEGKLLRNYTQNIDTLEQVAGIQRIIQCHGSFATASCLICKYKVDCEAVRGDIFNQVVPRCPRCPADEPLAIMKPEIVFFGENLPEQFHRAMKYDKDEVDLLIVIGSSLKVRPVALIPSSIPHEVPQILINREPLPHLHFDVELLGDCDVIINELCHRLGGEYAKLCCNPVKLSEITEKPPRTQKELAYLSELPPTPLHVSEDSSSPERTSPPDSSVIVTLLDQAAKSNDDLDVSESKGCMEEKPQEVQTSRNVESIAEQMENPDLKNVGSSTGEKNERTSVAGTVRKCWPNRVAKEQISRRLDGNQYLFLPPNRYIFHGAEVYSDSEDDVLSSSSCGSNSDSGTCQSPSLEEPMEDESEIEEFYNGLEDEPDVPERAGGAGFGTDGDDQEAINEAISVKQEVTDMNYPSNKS
Nature of the assay: Trp mass spectrometry assay of SIRT1 activity (EC1.5, percent maximum activation). The assay is classed as biochemical. Conditions: Trp mass spectrometry assay; for TRP Activity (EC1.5): EC1.5 = concentration giving 150% activation of SIRT1; for TRP MAX RESP (percent maximum fold activation): percent maximum activation of SIRT1. An excerpt: Mass spectrometry based assays were used to identify modulators of SIRT1 activity. […] The peptide was labeled with the fluorophore 5TMR (excitation 540 nm/emission 580 nm) at the C-terminus. The sequence of the peptide substrate was based on p53 with several modifications. In addition, the methionine residue naturally present in the sequence was replaced with the norleucine because the methionine may be susceptible to oxidation during synthesis and purification.
The Trp mass spectrometry assay was conducted as follows. […] The SIRT1 protein was obtained by cloning the SirT1 gene into a T7-promoter containing vector, which was then expressed in BL21(DE3) bacterial cells and purified as described in further detail below. Test compound was added at varying concentrations to this reaction mixture and the resulting reactions were monitored. After the 25 minute incubation with SIRT1, 10 μL of 10% formic acid was added to stop the reaction. The resulting reactions were sealed and frozen for later mass spec analysis. The relative SIRT1 activity was then determined by measuring the amount of O-acetyl-ADP-ribose (OAADPR) formed (or, alternatively, the amount of deacetylated Trp peptide generated) by the NAD-dependent sirtuin deacetylation reaction in the presence of varying concentrations of the test compound versus control reactions lacking the test compound. The degree to which the test agent activated deacetylation by SIRT1 was expressed as EC1.5 (i.e., the concentration of compound required to increase SIRT1 activity by 50% over the control lacking test compound), and Percent Maximum Activation (i.e., the maximum activity relative to control (100%) obtained for the test compound).
This time point was the same as that used for test compounds and, within the linear range, the endpoint represents a change in velocity.
For the above assay, SIRT1 protein was expressed and purified as follows. The SirT1 gene was cloned into a T7-promoter containing vector and transformed into BL21(DE3). The protein was expressed by induction with 1 mM IPTG as an N-terminal His-tag fusion protein at 18° C. overnight and harvested at 30,000×g. Cells were lysed with lysozyme in lysis buffer (50 mM Tris-HCl, 2 mM Tris[2-carboxyethyl]phosphine (TCEP), 10 μM ZnCl2, 200 mM NaCl) and further treated with sonication for 10 min for complete lysis. The protein was purified over a Ni-NTA column (Amersham) and fractions containing pure protein were pooled, concentrated and run over a sizing column (Sephadex S200 26/60 global). The peak containing soluble protein was collected and run on an Ion-exchange column (MonoQ). Gradient elution (200 mM-500 mM NaCl) yielded pure protein. This protein was concentrated and dialyzed against dialysis buffer (20 mM Tris-HCl, 2 mM TCEP) overnight. The protein was aliquoted and frozen at −80° C. until further use.
“NT” means not tested; “ND” means not determinable.

`O=C(Nc1cncc(OC[C@H](O)CO)c1)N1c2nc(-c3cccc(C(F)(F)F)c3)c(Cl)cc2N2CC[C@H]1C2` [Example 23, (4S)-8-chloro-N-(5-((R)-2,3-dihydroxypropoxy)pyridin-3-yl)-7-(3-(trifluoromethyl)phenyl)-3,4-dihydro-1,4-methanopyrido[2,3-b][1,4]diazepine-5(2H)-carboxamide]: the “TRP Activity (EC1.5)” value is on record as “A (EC1.5<1 μM)” and the “TRP MAX RESP (percent maximum fold activation)” value is on record as “A (Fold activation ≧150%)”.
The matching figures for `O=C(Nc1cc(OC[C@H](O)CO)ncn1)N1c2nc(-c3cccc(C(F)(F)F)c3)c(Cl)cc2N2CC[C@H]1C2` [Example 24, (4S)-8-chloro-N-(6-((R)-2,3-dihydroxypropoxy)pyrimidin-4-yl)-7-(3-(trifluoromethyl)phenyl)-3,4-dihydro-1,4-methanopyrido[2,3-b][1,4]diazepine-5(2H)-carboxamide]: “B (EC1.5 1-25 μM)” and “A (Fold activation ≧150%)”.
`Cc1cc(-c2nc3c(c(C)c2C)N2CC[C@@H](C2)N3C(=O)Nc2ccccn2)ccn1` [Example 25, (4S)-8,9-dimethyl-7-(2-methylpyridin-4-yl)-N-(pyridin-2-yl)-3,4-dihydro-1,4-methanopyrido[2,3-b][1,4]diazepine-5(2H)-carboxamide]: the “TRP Activity (EC1.5)” value was “B (EC1.5 1-25 μM)” and the “TRP MAX RESP (percent maximum fold activation)” value was “A (Fold activation ≧150%)”.
On the same counts, the results for `Cc1cc(-c2nc3c(cc2Cl)N2CC[C@@H](C2)N3C(=O)Nc2cc(OC[C@@H](O)CO)ccn2)ccn1` [Example 27, (4S)-8-chloro-N-(4-((S)-2,3-dihydroxypropoxy)pyridin-2-yl)-7-(2-methylpyridin-4-yl)-3,4-dihydro-1,4-methanopyrido[2,3-b][1,4]diazepine-5(2H)-carboxamide] are “B (EC1.5 1-25 μM)” and “A (Fold activation ≧150%)”.
Consider `Cl.O=C(Nc1ccnc(OC[C@@H](O)CO)n1)N1c2nc(-c3cccc(C(F)(F)F)c3)c(Cl)cc2N2CC[C@H]1C2` [Example 28, (4S)-8-chloro-N-(2-((S)-2,3-dihydroxypropoxy)pyrimidin-4-yl)-7-(3-(trifluoromethyl)phenyl)-3,4-dihydro-1,4-methanopyrido[2,3-b][1,4]diazepine-5(2H)-carboxamide, Hydrochloride], for which the “TRP Activity (EC1.5)” value is “A (EC1.5<1 μM)” and the “TRP MAX RESP (percent maximum fold activation)” value was “A (Fold activation ≧150%)”.
As for `Cc1cc(-c2nc3c(cc2Cl)N2CC[C@@H](C2)N3C(=O)Nc2cnc(OC[C@H](O)CO)cn2)ccn1` [Example 29, (4S)-8-chloro-N-(5-((R)-2,3-dihydroxypropoxy)pyrazin-2-yl)-7-(2-methylpyridin-4-yl)-3,4-dihydro-1,4-methanopyrido[2,3-b][1,4]diazepine-5(2H)-carboxamide], the “TRP Activity (EC1.5)” value is reported as “B (EC1.5 1-25 μM)” and the “TRP MAX RESP (percent maximum fold activation)” value is on record as “A (Fold activation ≧150%)”.
On the same counts, the results for `O=C(Nc1ccnc(OC[C@@H](O)CO)n1)N1c2nc(-c3cccc(C(F)(F)F)c3)c(Cl)cc2N2CC[C@H]1C2` [Example 30, (4S)-8-chloro-N-(2-((S)-2,3-dihydroxypropoxy)pyrimidin-4-yl)-7-(3-(trifluoromethyl)phenyl)-3,4-dihydro-1,4-methanopyrido[2,3-b][1,4]diazepine-5(2H)-carboxamide] are “A (EC1.5<1 μM)” and “A (Fold activation ≧150%)”.
As to `O=C(Nc1cc(OC[C@H](O)CO)ccn1)N1c2nc(-c3cccc(C(F)(F)F)c3)c(Cl)cc2N2CC[C@H]1C2` [Example 31, (4S)-8-chloro-N-(4-((R)-2,3-dihydroxypropoxy)pyridin-2-yl)-7-(3-(trifluoromethyl)phenyl)-3,4-dihydro-1,4-methanopyrido[2,3-b][1,4]diazepine-5(2H)-carboxamide], the “TRP Activity (EC1.5)” value is “B (EC1.5 1-25 μM)” and the “TRP MAX RESP (percent maximum fold activation)” value is “A (Fold activation ≧150%)”.
Turning to `O=C(Nc1cc(OC[C@H](O)CO)ccn1)N1c2nc(-c3cccc(C(F)(F)F)c3)c(Cl)cc2N2CC[C@H]1C2` [Example 32, (4S)-8-chloro-N-(4-((R)-2,3-dihydroxypropoxy)pyridin-2-yl)-7-(3-(trifluoromethyl)phenyl)-3,4-dihydro-1,4-methanopyrido[2,3-b][1,4]diazepine-5(2H)-carboxamide, Hydrochloride], the “TRP Activity (EC1.5)” value is listed as “B (EC1.5 1-25 μM)” and the “TRP MAX RESP (percent maximum fold activation)” value was “A (Fold activation ≧150%)”.
The matching figures for `O=C(Nc1cnc(OC[C@@H](O)CO)cn1)N1c2nc(-c3cccc(C(F)(F)F)c3)c(Cl)cc2N2CC[C@H]1C2` [Example 33, (4S)-8-chloro-N-(5-((S)-2,3-dihydroxypropoxy)pyrazin-2-yl)-7-(3-(trifluoromethyl)phenyl)-3,4-dihydro-1,4-methanopyrido[2,3-b][1,4]diazepine-5(2H)-carboxamide]: “B (EC1.5 1-25 μM)” and “A (Fold activation ≧150%)”.
Take `O=C(Nc1cnc(OC[C@H](O)CO)cn1)N1c2nc(-c3cccc(C(F)(F)F)c3)c(Cl)cc2N2CC[C@H]1C2` [Example 34, (4S)-8-chloro-N-(5-((R)-2,3-dihydroxypropoxy)pyrazin-2-yl)-7-(3-(trifluoromethyl)phenyl)-3,4-dihydro-1,4-methanopyrido[2,3-b][1,4]diazepine-5(2H)-carboxamide]: the “TRP Activity (EC1.5)” value was “B (EC1.5 1-25 μM)” and the “TRP MAX RESP (percent maximum fold activation)” value is given as “A (Fold activation ≧150%)”.
On the same counts, the results for `O=C(Nc1ccccn1)N1c2nc(-c3cccc(C(F)(F)F)c3)c(Cl)cc2N2CC[C@H]1C2` [Example 35, (4S)-8-chloro-N-(pyridin-2-yl)-7-(3-(trifluoromethyl)phenyl)-3,4-dihydro-1,4-methanopyrido[2,3-b][1,4]diazepine-5(2H)-carboxamide] are “A (EC1.5<1 μM)” and “A (Fold activation ≧150%)”.
As for `Cc1cc(-c2nc3c(cc2C)N2CC[C@@H](C2)N3C(=O)Nc2ccccn2)ccn1` [Example 36, (4S)-8-methyl-7-(2-methylpyridin-4-yl)-N-(pyridin-2-yl)-3,4-dihydro-1,4-methanopyrido[2,3-b][1,4]diazepine-5(2H)-carboxamide], the “TRP Activity (EC1.5)” value is given as “B (EC1.5 1-25 μM)” and the “TRP MAX RESP (percent maximum fold activation)” value is “A (Fold activation ≧150%)”.
`Cc1cc(-c2nc3c(cc2Cl)N2CC[C@@H](C2)N3C(=O)Nc2ccnc(OC[C@@H](O)CO)c2)ccn1` [Example 37, (4S)-8-chloro-N-(2-((S)-2,3-dihydroxypropoxy)pyridin-4-yl)-7-(2-methylpyridin-4-yl)-3,4-dihydro-1,4-methanopyrido[2,3-b][1,4]diazepine-5(2H)-carboxamide]: the “TRP Activity (EC1.5)” value is on record as “B (EC1.5 1-25 μM)” and the “TRP MAX RESP (percent maximum fold activation)” value is given as “A (Fold activation ≧150%)”.

Values taken from patent US20170355705A1 (GlaxoSmithKline Intellectual Property (No.2) Limited, priority 2014, published 2017).
